Measurements as given in the NIST ThermoML archive (doi:10.1021/je201334p).

Assays:
[1] = refractive index (Na D-line) (dimensionless); xn = mol fraction of the nth substance listed; details: 101 kPa, Liquid, Standard Abbe refractometry
[2] = xn = mol fraction of the nth substance listed; details: 101 kPa, Liquid; for speed of sound: Sing-around technique in a fixed-path interferometer; for mass density: Vibrating tube method

CCCC[N+]1(C)CCCC1.N#CN=C=[N-] [1-butyl-1-methylpyrrolidinium dicyanamide] + O
Details | mass density, 288.15 K [kg/m3] | mass density, 298.15 K [kg/m3] | mass density, 308.15 K [kg/m3] | refractive index, 288.15 K | refractive index, 298.15 K | refractive index, 308.15 K | speed of sound, 288.15 K [m/s] | speed of sound, 298.15 K [m/s] | speed of sound, 308.15 K [m/s]
[1], x2 = 0 | – | – | – | 1.49968 | 1.49681 | 1.49392 | – | – | –
[1], x2 = 0.096 | – | – | – | 1.49811 | 1.49519 | 1.49222 | – | – | –
[1], x2 = 0.1277 | – | – | – | 1.49752 | 1.49459 | 1.49162 | – | – | –
[1], x2 = 0.2116 | – | – | – | 1.4957 | 1.49278 | 1.48982 | – | – | –
[1], x2 = 0.3077 | – | – | – | 1.49322 | 1.49032 | 1.4871 | – | – | –
[1], x2 = 0.3942 | – | – | – | 1.49044 | 1.48751 | 1.48432 | – | – | –
[1], x2 = 0.4952 | – | – | – | 1.48621 | 1.48329 | 1.47987 | – | – | –
[1], x2 = 0.5023 | – | – | – | 1.4858 | 1.48284 | 1.47973 | – | – | –
[1], x2 = 0.6047 | – | – | – | 1.4797 | 1.47674 | 1.47345 | – | – | –
[1], x2 = 0.6137 | – | – | – | 1.47901 | 1.4761 | 1.47289 | – | – | –
[1], x2 = 0.7061 | – | – | – | 1.47041 | 1.46748 | 1.46424 | – | – | –
[1], x2 = 0.7177 | – | – | – | 1.46905 | 1.46612 | 1.46281 | – | – | –
[1], x2 = 0.7571 | – | – | – | 1.46368 | 1.46078 | 1.45746 | – | – | –
[1], x2 = 0.8208 | – | – | – | 1.45158 | 1.4487 | 1.44577 | – | – | –
[1], x2 = 0.8468 | – | – | – | 1.44481 | 1.44172 | 1.43884 | – | – | –
[1], x2 = 0.9034 | – | – | – | 1.42419 | 1.42145 | 1.41909 | – | – | –
[1], x2 = 0.904 | – | – | – | 1.42386 | 1.42118 | 1.41891 | – | – | –
[1], x2 = 0.9492 | – | – | – | 1.39597 | 1.39362 | 1.39175 | – | – | –
[1], x2 = 0.9507 | – | – | – | 1.39472 | 1.39249 | 1.39055 | – | – | –
[1], x2 = 0.9517 | – | – | – | 1.3939 | 1.39161 | 1.3897 | – | – | –
[2], x2 = 0 | 1019.17 | 1013.53 | 1007.93 | – | – | – | 1836.9 | 1811.1 | 1781.9
[2], x2 = 0.096 | 1018.92 | 1013.25 | 1007.63 | – | – | – | 1836.1 | 1810.6 | 1782.4
[2], x2 = 0.1277 | 1018.84 | 1013.16 | 1007.52 | – | – | – | 1835.8 | 1810.4 | 1783.1
[2], x2 = 0.2116 | 1018.6 | 1012.89 | 1007.23 | – | – | – | 1835.3 | 1810.1 | 1783.8
[2], x2 = 0.3077 | 1018.31 | 1012.56 | 1006.85 | – | – | – | 1835.6 | 1810 | 1784.2
[2], x2 = 0.3942 | 1018.08 | 1012.27 | 1006.5 | – | – | – | 1834.9 | 1810 | 1785.7
[2], x2 = 0.4952 | 1017.78 | 1011.89 | 1006.03 | – | – | – | 1835.1 | 1810.8 | 1786.7
[2], x2 = 0.5023 | 1017.76 | 1011.86 | 1005.99 | – | – | – | 1835.2 | 1810.9 | 1786.7
[2], x2 = 0.6047 | 1017.45 | 1011.42 | 1005.42 | – | – | – | 1835.9 | 1811.8 | 1788
[2], x2 = 0.6137 | 1017.41 | 1011.37 | 1005.35 | – | – | – | 1835.7 | 1811.8 | 1788
[2], x2 = 0.7061 | 1016.91 | 1010.72 | 1004.54 | – | – | – | 1832.9 | 1809.6 | 1786.1
[2], x2 = 0.7177 | 1016.81 | 1010.61 | 1004.4 | – | – | – | 1832 | 1808.9 | 1785.6
[2], x2 = 0.7571 | 1016.39 | 1010.13 | 1003.86 | – | – | – | 1827.3 | 1804.9 | 1782.1
[2], x2 = 0.8208 | 1015.22 | 1008.91 | 1002.57 | – | – | – | 1810.9 | 1790.5 | 1769.4
[2], x2 = 0.8468 | 1014.46 | 1008.19 | 1001.84 | – | – | – | 1798.5 | 1779.7 | 1756.5
[2], x2 = 0.9034 | 1011.96 | 1005.98 | 999.84 | – | – | – | 1750.6 | 1738.3 | 1724.2
[2], x2 = 0.904 | 1011.92 | 1005.93 | 999.81 | – | – | – | 1749.8 | 1737.2 | 1723.6
[2], x2 = 0.9492 | 1008.27 | 1003.12 | 997.62 | – | – | – | 1671.5 | 1670.7 | 1666.7
[2], x2 = 0.9507 | 1008.1 | 1002.99 | 997.53 | – | – | – | 1667.9 | 1667.7 | 1664.3
[2], x2 = 0.9517 | 1007.98 | 1002.91 | 997.47 | – | – | – | 1665.4 | 1665.5 | 1662.5

CCOS(=O)(=O)[O-].CCc1cccc[n+]1CC [1,2-diethylpyridinium ethylsulfate] + O
Details | mass density, 288.15 K [kg/m3] | mass density, 298.15 K [kg/m3] | mass density, 308.15 K [kg/m3] | refractive index, 288.15 K | refractive index, 298.15 K | refractive index, 308.15 K | speed of sound, 288.15 K [m/s] | speed of sound, 298.15 K [m/s] | speed of sound, 308.15 K [m/s]
[1], x2 = 0 | – | – | – | 1.51631 | 1.5135 | 1.51067 | – | – | –
[1], x2 = 0.0987 | – | – | – | 1.51478 | 1.51196 | 1.50914 | – | – | –
[1], x2 = 0.1089 | – | – | – | 1.51458 | 1.51176 | 1.50896 | – | – | –
[1], x2 = 0.2048 | – | – | – | 1.51266 | 1.50984 | 1.50705 | – | – | –
[1], x2 = 0.3037 | – | – | – | 1.51023 | 1.50743 | 1.50461 | – | – | –
[1], x2 = 0.3979 | – | – | – | 1.50723 | 1.5044 | 1.50156 | – | – | –
[1], x2 = 0.4922 | – | – | – | 1.50325 | 1.50042 | 1.49759 | – | – | –
[1], x2 = 0.6018 | – | – | – | 1.49668 | 1.49381 | 1.49094 | – | – | –
[1], x2 = 0.7084 | – | – | – | 1.48656 | 1.48367 | 1.48071 | – | – | –
[1], x2 = 0.8029 | – | – | – | 1.47121 | 1.46831 | 1.46515 | – | – | –
[1], x2 = 0.8984 | – | – | – | 1.43938 | 1.43661 | 1.43375 | – | – | –
[1], x2 = 0.9493 | – | – | – | 1.4043 | 1.40198 | 1.40013 | – | – | –
[2], x2 = 0 | 1225.93 | 1219.26 | 1212.65 | – | – | – | 1774.5 | 1745.2 | 1718.4
[2], x2 = 0.0987 | 1224.31 | 1217.63 | 1211.14 | – | – | – | 1778.2 | 1749.1 | 1722.4
[2], x2 = 0.1089 | 1224.06 | 1217.36 | 1210.87 | – | – | – | 1778.4 | 1749.5 | 1723
[2], x2 = 0.2048 | 1222.4 | 1215.83 | 1209.22 | – | – | – | 1781.1 | 1753.9 | 1727.5
[2], x2 = 0.3037 | 1219.81 | 1213.23 | 1206.65 | – | – | – | 1787.5 | 1760.5 | 1734.4
[2], x2 = 0.3979 | 1216.82 | 1210.11 | 1203.43 | – | – | – | 1794.1 | 1767.4 | 1741.1
[2], x2 = 0.4922 | 1212.76 | 1206.04 | 1199.29 | – | – | – | 1803.5 | 1776.8 | 1750.6
[2], x2 = 0.6018 | 1205.78 | 1198.92 | 1192.05 | – | – | – | 1817.3 | 1790.5 | 1763.7
[2], x2 = 0.7084 | 1194.96 | 1187.92 | 1180.85 | – | – | – | 1836.4 | 1809.2 | 1782.1
[2], x2 = 0.8029 | 1177.39 | 1170.26 | 1163.05 | – | – | – | 1854.8 | 1827.2 | 1799.4
[2], x2 = 0.8984 | 1138.4 | 1131.51 | 1124.48 | – | – | – | 1846.6 | 1821.6 | 1795.6
[2], x2 = 0.9493 | 1092.23 | 1086.65 | 1080.72 | – | – | – | 1759.2 | 1746.2 | 1731.8
